pIC50: −log10 of the molar value.
Experiments:
Format in all cases: cell-based
[1] = test system: multidrug-resistant HIV-1 clinical isolate, patient 14; experiment: microbe, parasite or virus in culture; conditions: Human immunodeficiency virus 1; Patient Isolate 14
Protocol: (§1) The mutant multidrug-resistant HIV-1 strains corresponding to each patient, numbered 9-35, were genetically analyzed in terms of the nucleic acid sequences of the protease (PR) and a portion of the reverse transcriptase (RT) genes from which mutations in these enzymes were determined. The mutations in the protease and reverse transcriptase of the multidrug-resistant viruses isolated from each patient are shown below in Table 9b.

[2] = test system: multidrug-resistant HIV-1 clinical isolate, patient 15; experiment: microbe, parasite or virus in culture; conditions: Human immunodeficiency virus 1; Patient Isolate 15
Protocol: as §1

[3] = test system: multidrug-resistant HIV-1 clinical isolate, patient 32; experiment: microbe, parasite or virus in culture; conditions: Human immunodeficiency virus 1; Patient Isolate 32
Protocol: as §1

[4] = test system: multidrug-resistant HIV-1 clinical isolate, patient 19; experiment: microbe, parasite or virus in culture; conditions: Human immunodeficiency virus 1; Patient Isolate 19
Protocol: as §1

[5] = test system: multidrug-resistant HIV-1 clinical isolate, patient 17; experiment: microbe, parasite or virus in culture; conditions: Human immunodeficiency virus 1; Patient Isolate 17
Protocol: as §1

[6] = test system: multidrug-resistant HIV-1 clinical isolate, patient 23; experiment: microbe, parasite or virus in culture; conditions: Human immunodeficiency virus 1; Patient Isolate 23
Protocol: as §1

[7] = test system: multidrug-resistant HIV-1 clinical isolate, patient 12; experiment: microbe, parasite or virus in culture; conditions: Human immunodeficiency virus 1; Patient Isolate 12
Protocol: as §1

[8] = test system: multidrug-resistant HIV-1 clinical isolate, patient 28; experiment: microbe, parasite or virus in culture; conditions: Human immunodeficiency virus 1; Patient Isolate 28
Protocol: as §1

[9] = test system: multidrug-resistant HIV-1 clinical isolate, patient 16; experiment: microbe, parasite or virus in culture; conditions: Human immunodeficiency virus 1; Patient Isolate 16
Protocol: as §1

[10] = test system: multidrug-resistant HIV-1 clinical isolate, patient 30; experiment: microbe, parasite or virus in culture; conditions: Human immunodeficiency virus 1; Patient Isolate 30
Protocol: as §1

[11] = test system: multidrug-resistant HIV-1 clinical isolate, patient 13; experiment: microbe, parasite or virus in culture; conditions: Human immunodeficiency virus 1; Patient Isolate 13
Protocol: as §1

[12] = test system: multidrug-resistant HIV-1 clinical isolate, patient 18; experiment: microbe, parasite or virus in culture; conditions: Human immunodeficiency virus 1; Patient Isolate 18
Protocol: as §1

[13] = test system: multidrug-resistant HIV-1 clinical isolate, patient 27; experiment: microbe, parasite or virus in culture; conditions: Human immunodeficiency virus 1; Patient Isolate 27
Protocol: as §1

[14] = test system: multidrug-resistant HIV-1 clinical isolate, patient 35; experiment: microbe, parasite or virus in culture; conditions: Human immunodeficiency virus 1; Patient Isolate 35
Protocol: as §1

[15] = test system: multidrug-resistant HIV-1 clinical isolate, patient 10; experiment: microbe, parasite or virus in culture; conditions: Human immunodeficiency virus 1; Patient Isolate 10
Protocol: as §1

[16] = test system: multidrug-resistant HIV-1 clinical isolate, patient 31; experiment: microbe, parasite or virus in culture; conditions: Human immunodeficiency virus 1; Patient Isolate 31
Protocol: as §1

[17] = test system: multidrug-resistant HIV-1 clinical isolate, patient 21; experiment: microbe, parasite or virus in culture; conditions: Human immunodeficiency virus 1; Patient Isolate 21
Protocol: as §1

[18] = test system: multidrug-resistant HIV-1 clinical isolate, patient 11; experiment: microbe, parasite or virus in culture; conditions: Human immunodeficiency virus 1; Patient Isolate 11
Protocol: as §1

[19] = test system: multidrug-resistant HIV-1 clinical isolate, patient 33; experiment: microbe, parasite or virus in culture; conditions: Human immunodeficiency virus 1; Patient Isolate 33
Protocol: as §1

[20] = test system: multidrug-resistant HIV-1 clinical isolate, patient 29; experiment: microbe, parasite or virus in culture; conditions: Human immunodeficiency virus 1; Patient Isolate 29
Protocol: as §1

[21] = test system: multidrug-resistant HIV-1 clinical isolate, patient 20; experiment: microbe, parasite or virus in culture; conditions: Human immunodeficiency virus 1; Patient Isolate 20
Protocol: as §1

[22] = test system: multidrug-resistant HIV-1 clinical isolate, patient 9; experiment: microbe, parasite or virus in culture; conditions: Human immunodeficiency virus 1; Patient Isolate 9
Protocol: as §1

wild-type HIV-1 (WT) = experiment: IC50 against wild-type HIV-1 (Table 9a); conditions: Human immunodeficiency virus 1; (WT)
HIV-1LAI = experiment: PHA-PBMC assay, p24 Gag protein production; conditions: Human immunodeficiency virus 1; HIV-1LAI, SI; PHA-PBMC, p24 (Table 3)
[23] = test system: multidrug-resistant HIV-1 clinical isolate, patient 34; experiment: IC50 against multidrug-resistant clinical isolates (Table 9a); conditions: Human immunodeficiency virus 1
Protocol: as §1

[24] = test system: multidrug-resistant HIV-1 clinical isolate, patient 22; experiment: as above; conditions: Human immunodeficiency virus 1
Protocol: as §1

[25] = test system: multidrug-resistant HIV-1 clinical isolate, patient 1; experiment: PHA-PBMC assay, p24 Gag protein production; conditions: Human immunodeficiency virus 1; Patient/Isolate code 1; PHA-PBMC, p24
Protocol: (§2) The patient profiles are shown below in Table 2.
(§3) To determine protease inhibitory activity against multidrug resistant HIV, the IC50's were measured against a panel of clinically isolated mutant HIV isolates.
(§4) All drug sensitivities were performed in triplicate. In order to determine whether the HIV isolates were syncitium inducing (SI) or non-syncitium inducing (NSI), an aliquot of viral stock supernatant, containing 100 TCID50, was cultured with 1×10^5 MT-2 cells in a 12-well plate. Cultures were maintained for four weeks and were examined for syncytium formation twice a week.

[26] = test system: multidrug-resistant HIV-1 clinical isolate, patient 7; experiment: PHA-PBMC assay, p24 Gag protein production; conditions: Human immunodeficiency virus 1; Patient/Isolate code 7; PHA-PBMC, p24
Protocol: as §2, §3, §4

[27] = test system: multidrug-resistant HIV-1 clinical isolate, patient 2; experiment: PHA-PBMC assay, p24 Gag protein production; conditions: Human immunodeficiency virus 1; Patient/Isolate code 2; PHA-PBMC, p24
Protocol: as §2, §3, §4

[28] = test system: multidrug-resistant HIV-1 clinical isolate, patient 8; experiment: PHA-PBMC assay, p24 Gag protein production; conditions: Human immunodeficiency virus 1; Patient/Isolate code 8; PHA-PBMC, p24
Protocol: as §2, §3, §4

HIV-1ERS104pre = experiment: PHA-PBMC assay, p24 Gag protein production; conditions: Human immunodeficiency virus 1; HIV-1ERS104pre, SI; PHA-PBMC, p24
Protocol: as §2, §3, §4

[29] = test system: multidrug-resistant HIV-1 clinical isolate, patient 4; experiment: PHA-PBMC assay, p24 Gag protein production; conditions: Human immunodeficiency virus 1; Patient/Isolate code 4; PHA-PBMC, p24
Protocol: as §2, §3, §4

[30] = test system: multidrug-resistant HIV-1 clinical isolate, patient 6; experiment: PHA-PBMC assay, p24 Gag protein production; conditions: Human immunodeficiency virus 1; Patient/Isolate code 6; PHA-PBMC, p24
Protocol: as §2, §3, §4

[31] = test system: multidrug-resistant HIV-1 clinical isolate, patient 5; experiment: PHA-PBMC assay, p24 Gag protein production; conditions: Human immunodeficiency virus 1; Patient/Isolate code 5; PHA-PBMC, p24
Protocol: as §2, §3, §4

[32] = test system: multidrug-resistant HIV-1 clinical isolate, patient 3; experiment: PHA-PBMC assay, p24 Gag protein production; conditions: Human immunodeficiency virus 1; Patient/Isolate code 3; PHA-PBMC, p24
Protocol: as §2, §3, §4

HIV-1BAL = experiment: PHA-PBMC assay, p24 Gag protein production; conditions: Human immunodeficiency virus 1; HIV-1BAL, NSI; PHA-PBMC, p24 (Table 3)

## CC(C)(C)NC(=O)[C@@H]1C[C@@H]2CCCC[C@@H]2CN1C[C@@H](O)[C@H](Cc1ccccc1)NC(=O)[C@H](CC(N)=O)NC(=O)c1ccc2ccccc2n1 [SAQ, Saquinavir]
[1]
  pIC50: 7.40
[2]
  pIC50: < 6.51
[3]
  pIC50: < 6.51
[4]
  pIC50: 7.26
[5]
  pIC50: 6.97
[6]
  pIC50: 8.10
[7]
  pIC50: < 6.51
[8]
  pIC50: < 6.51
[9]
  pIC50: < 6.51
[10]
  pIC50: 6.72
[11]
  pIC50: < 6.51
[12]
  pIC50: 7.41
[13]
  pIC50: < 6.51
[14]
  pIC50: 7.21
[15]
  pIC50: < 6.51
[16]
  pIC50: 7.13
[17]
  pIC50: 6.68
[18]
  pIC50: 9.00
[19]
  pIC50: 7.23
[20]
  pIC50: 7.30
[21]
  pIC50: 7.49
[22]
  pIC50: < 6.51
wild-type HIV-1 (WT)
  pIC50: 8.15
HIV-1LAI
  pIC50: 8.27
[23]
  pIC50: 7.20
[24]
  pIC50: 8.52
[25]
  pIC50: 6.54
[26]
  pIC50: 6.92
[27]
  pIC50: 7.46
[28]
  pIC50: 8.05
HIV-1ERS104pre
  pIC50: 8.00
[29]
  pIC50: 7.48
[30]
  pIC50: 6.72
[31]
  pIC50: 6.62
[32]
  pIC50: 7.44
HIV-1BAL
  pIC50: 8.43
